Assay results published in patent US20120071475A1, “UREA DERIVATIVES HAVING PI3K-INHIBITING ACTIVITY” (SHIONOGI & CO., LTD., priority 2009, published 2012).
Where two headings read alike, the source gives them in different places.

Columns and labels:
hERG channel (IKr) = target: T1, hERG channel (IKr) (Homo sapiens, UniProt Q12809); experiment: hERG test (whole-cell patch-clamp, IKr in HEK293 cells); assay type: cell-based; conditions: human, HEK293 cells expressing hERG channel, pH 7.4, inhibition of maximum tail current (IKr), compound 1 μM
T1 construct: expressed in transfected cells; host or cells: HEK293
How it was run: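 hERG-expressing HEK293 cells, automated whole-cell patch clamp: hold −80 mV, +50 mV for 2 s, then −50 mV for 2 s to record IKr tail current. Compound in extracellular solution (pH 7.4) for 10 min at room temperature; inhibition of maximum tail current calculated versus pre-application and compared with 0.1% DMSO vehicle.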

AKT phosphorylation = AKT phosphorylation inhibitory activity in MCP-1 stimulated THP-1 cells (sandwich ELISA); assay type: cell-based, Human; conditions: Homo sapiens, compound at 1 μmol/L, MCP-1 stimulation, read-out: AKT phosphorylation inhibition ratio
Procedure: (1) The AKT phosphorylation inhibitory activity of a compound was evaluated according to the following procedure. (2) Human monocyte-like cell line THP-1 was washed with RPMI-1640 media, incubated in the presence of 5% CO2 at 37° C. for 3 hours, washed with Hank's balanced salt solution (HBSS), adjusted to a cell concentration of 6.7×10^6/mL, and then used in an experiment. (3) 30 μL of the cell suspension and 60 μL of each compound solution containing 0.2% DMSO/HBSS were mixed and then preincubated at 37° C. for 5 minutes. 30 μL of HBSS containing 1.2 μg/mL of MCP-1 was added thereto and then incubated for 60 seconds at 37° C. (4) 30 μL of a cell lysate (the final concentrations: 20 mmol/L Tris-HCl (pH 7.5), 150 mmol/L NaCl, 1 mmol/L EDTA, 1 mmol/L EDTA, 1% Triton X-100, 2.5 mmol/L sodium pyrophosphate, 1 mmol/L β-glycerophosphate, 1 mmol/L Na3VO4, 1 μg/ml leupeptin, 50 nmol/L APMSF) was added thereto to lyse cells. (5) The amount of AKT phosphorylation in the cell solution was measured by sandwich ELISA method using anti-Phospho-Akt (Ser473) antibody and anti-AKT1 antibody. (6) Anti-Phospho-Akt (Ser473) antibodies or anti-AKT1 antibodies were immobilized onto the solid phase of a micro well plate. The prepared cell lysate was added to the micro well plate, incubated, and then washed with ELISA wash solution. (7) An anti-AKT1 antibody or anti-Phospho-Akt (Ser473) antibody, which forms a counterpart to an antibody immobilized on the solid phase, was added thereto, incubated, washed similarly, and then reacted with an HRP-labeled anti-mouse IgG antibody. (8) After incubating for 30 minutes and then washing similarly, 100 μL of TMB (3,3′,5,5″-tetramethylbenzidine) was added thereto, followed by reacting for 30 minutes. (9) 100 μL of stop solution was added to quench the color reaction, and then the absorbance at 450 nm was measured. (10) The amount of AKT phosphorylation in a sample in the absence of a compound was defined as 100% activity, and the amount of AKT phosphorylation in a sample in the absence of MCP-1 was defined as 0% activity to calculate an inhibition ratio of each compound. The measurement was performed for a 1 μmol/L solution of each compound.

CYP3A4 = target: T2, CYP3A4 (Homo sapiens, UniProt P08684); experiment: CYP3A4 fluorescence MBI test; assay type: in vitro ADME; conditions: difference in IC50 with 0 or 30 minutes pre-reaction; CYP3A4 expressed in E. coli, substrate 7-BFC
T2 construct: host or cells: E. coli
How it was run: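 E. coli-expressed CYP3A4 debenzylating 5.6 μmol/L 7-BFC to fluorescent 7-HFC (Ex 420/Em 535 nm) in K-Pi pH 7.4 at 25° C, 15 min reaction. NADPH pre-incubation of 0 or 30 min, with 10-fold dilution before reaction. IC50 from 0.625–20 μmol/L (6 points); (+) for an IC50 shift ≥5 μmol/L, (−) for ≤3 μmol/L.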

[1] = tested on: CYP1A2, CYP2C9, CYP2C19, CYP2D6 and CYP3A4 (one value for the five species); experiment: CYP inhibition test, five CYP species together (5CYPs_IC50; pooled human liver microsome); assay type: in vitro ADME; conditions: human, microsomes
Description: O-de-ethylation of 7-ethoxyresorufin (CYP1A2), methyl-hydroxylation of tolbutamide (CYP2C9), 4′-hydroxylation of mephenyloin (CYP2C19), O-demethylation of dextromethorphan (CYP2D6), and hydroxylation of terfenadine (CYP3A4), which are typical substrate for metabolic reactions of human main CYP5 molecular species (CYP1A2, 2C9, 2C19, 2D6, and 3A4), were adopted as indexes.
The reaction conditions are as follows: substrate: 0.5 μmol/L of ethoxyresorufin (CYP1A2), 100 μmol/L of tolbutamide (CYP2C9), 50 μmol/L of S-mephenyloin (CYP2C19), 5 μmol/L of dextromethorphan (CYP2D6), and 1 μmol/L of terfenadine (CYP3A4); reaction time; 15 minutes; reaction temperature: 37° C.; enzyme: pooled human liver microsome 0.2 mg protein/mL; test drug concentration: 1, 5, 10, and 20 μmol/L (4 points).
In a 96-well plate, as a reaction solution, five kinds of substrates, a human liver microsome, and a test drug were added to 50 mmol/L Hepes buffer solution in the aforementioned ratio. A coenzyme NADPH was added to start a metabolic reaction, which is an index. After reacting at 37° C. for 15 minutes, a solution of methanol/acetonitrile (1/1 (v/v)) was added to quench the reaction. After centrifugation at 3000 rpm for 15 minutes, resorufin (CYP1A2 metabolite) in the supernatant was quantitated with a fluorescence multilabel counter, and hydroxylated tolbutamide (CYP2C9 metabolite), 4′-hydroxylated mephenyloin (CYP2C19 metabolite), […], terfenadine in alcohol form (CYP3A4 metabolite) were quantitated with LC/MS/MS.
The case wherein only DMSO (a solvent which dissolved a drug) was added to a reaction system was defined as a control (100%). When a test drug solution was added, the remaining activity (%) at each concentration was calculated, and then IC50 was calculated with a concentration and an inhibition ratio by an inverse estimation using a logistic model.

PI3Kγ [2] = target: T3, PI3Kγ (Homo sapiens, UniProt P48736); experiment: PI3Kγ inhibitory activity (PI3-kinase HTRF assay, inhibition ratio); assay type: biochemical; conditions: 0.5 h, compound at 10 μmol/L; read-out: PI3Kg Inhibition Ratio % (10 μM)
How it was run: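 Compound at 10 μmol/L preincubated 10 min with PI3Kγ and PIP2 substrate, then reacted with ATP for 30 minutes at room temperature; the compound, substrate and ATP figures as printed (40 μmol/L each) are solution concentrations. HTRF 665/620 nm ratio read after 18 hours. Inhibition ratio calculated against no-compound (100%) and no-enzyme (0%) controls.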

[3] = Metabolic stability test (pooled human liver microsome); assay type: in vitro ADME; conditions: percentage of test compound remained after 30 minutes, pooled human liver microsome 0.5 mg protein/mL, 1 mmol/L NADPH, 37° C., compound 0.5 μM
How it was run: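 Pooled human liver microsomes (0.5 mg protein/mL) incubated with compound and 1 mmol/L NADPH at 37° C. in pH 7.4 Tris buffer for 0 or 30 min. Parent quantified by LC/MS/MS after methanol/acetonitrile quench; value is % remaining at 30 min versus 0 min.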

PI3Kγ [4] = target: T3, PI3Kγ; experiment: PI3Kγ inhibitory activity (Ki value); assay type: biochemical
Procedure: The PI3Kγ inhibitory activity (Ki value) of a compound was evaluated according to the following procedure:
5 μL of a compound solution containing 10% DMSO and […] of a compound was changed to 5 μL of a compound solution containing 10% DMSO and either 200, 64, 20, 6.4, 2, 0.64, or 0.20 μmol/L of the compound (optionally, this is diluted to a lower concentration). Using a method similar to the method for measuring PI3Kγ inhibitory activity, inhibition ratios of PI3Kγ were measured in the presence of the compound at 50, 16, 5, 1.6, 0.5, 0.16, and 0.05 μmol/L (optionally, a lower concentration). Then an IC50 value was calculated by a logistic approximation method or the linear regression method using two concentrations that cross 50% inhibition. Separately, the ATP concentration in the reaction solution (40 μmol/L ATP, 10 mmol/L MgCl2, 5 mmol/L DTT) at the time of the start of a reaction in the absence of the compound was changed to 80, 40, 20, 10, 5, 2.5, 1.25, or 0.625 μmol/L. Then, HTRF ratios were measured by a similar method. The value obtained by subtracting the HTRF ratio at each ATP concentration from the HTRF ratio in the absence of PI-3 kinase y was defined as the value obtained by multiplying reaction rate (v) at each ATP concentration with a constant. The Michaelis-Menten constant Km was then calculated by the Lineweaver-Burk plot method. The Ki value of a compound was calculated by the following formula wherein “μM” denotes “μmol/L.”
Ki value ═IC50 value/(1+test ATP concentration (μM)/Km (μM))

PI3Kα = PI3Kα (Homo sapiens, UniProt P42336); experiment: PI3Kα inhibitory activity (Ki value); assay type: biochemical
Procedure: According to Example 2 above, after 80 μg/mL PI-3 kinase γ of the enzyme solution (80 μg/mL PI-3 kinase γ, 10 mmol/L MgCl2, 5 mmol/L DTT) was changed to 0.8 μg/mL PI-3 kinase α, an inhibition ratio was calculated by a method similar to the method for measuring PI3Kγ inhibitory activity, and then defined as the PI3Kα inhibitory activity.
The α inhibitory activity (Ki value) of a compound was evaluated according to the following procedure.
According to Example 4 above, a Km value for PI3Kα was determined to calculate a Ki value.

PI3Kβ = PI3Kβ (Homo sapiens, UniProt P42338); experiment: PI3Kβ inhibitory activity (Ki value); assay type: biochemical
Procedure: According to Example 2 above, after 80 μg/mL PI-3 kinase γ of the enzyme solution (80 μg/mL PI-3 kinase γ, 10 mmol/L MgCl2, 5 mmol/L DTT) was changed to 60 μg/mL PI-3 kinase β, a method similar to the method for measuring PI3Kγ inhibitory activity was used to calculate an inhibition ratio, which was defined as the PI3Kβ inhibitory activity.
According to Example 4 above, a Km value for PI3Kβ was determined to calculate a Ki value.

PI3Kδ = PI3Kδ (Homo sapiens, UniProt O00329); experiment: PI3Kδ inhibitory activity (Ki value); assay type: biochemical
Procedure: According to Example 2 above, after 80 μg/mL PI-3 kinase γ of the enzyme solution (80 μg/mL PI-3 kinase γ, 10 mmol/L MgCl2, 5 mmol/L DTT) was changed to 158 μg/mL PI-3 kinase δ, a method similar to the method for measuring PI3Kγ inhibitory activity was used to calculate an inhibition ratio, which was defined as the PI3Kδ inhibitory activity.
According to Example 4 above, a Km value for PI3Kδ was determined to calculate a Ki value.

[5] = class symbols, read-out: PI3K γ Ki
[6] = class symbols, read-out: PI3K α Ki
[7] = class symbols, read-out: PI3K β Ki
[8] = class symbols, read-out: PI3K δ Ki

T3 sequence (P48736 whole entry, species assumed): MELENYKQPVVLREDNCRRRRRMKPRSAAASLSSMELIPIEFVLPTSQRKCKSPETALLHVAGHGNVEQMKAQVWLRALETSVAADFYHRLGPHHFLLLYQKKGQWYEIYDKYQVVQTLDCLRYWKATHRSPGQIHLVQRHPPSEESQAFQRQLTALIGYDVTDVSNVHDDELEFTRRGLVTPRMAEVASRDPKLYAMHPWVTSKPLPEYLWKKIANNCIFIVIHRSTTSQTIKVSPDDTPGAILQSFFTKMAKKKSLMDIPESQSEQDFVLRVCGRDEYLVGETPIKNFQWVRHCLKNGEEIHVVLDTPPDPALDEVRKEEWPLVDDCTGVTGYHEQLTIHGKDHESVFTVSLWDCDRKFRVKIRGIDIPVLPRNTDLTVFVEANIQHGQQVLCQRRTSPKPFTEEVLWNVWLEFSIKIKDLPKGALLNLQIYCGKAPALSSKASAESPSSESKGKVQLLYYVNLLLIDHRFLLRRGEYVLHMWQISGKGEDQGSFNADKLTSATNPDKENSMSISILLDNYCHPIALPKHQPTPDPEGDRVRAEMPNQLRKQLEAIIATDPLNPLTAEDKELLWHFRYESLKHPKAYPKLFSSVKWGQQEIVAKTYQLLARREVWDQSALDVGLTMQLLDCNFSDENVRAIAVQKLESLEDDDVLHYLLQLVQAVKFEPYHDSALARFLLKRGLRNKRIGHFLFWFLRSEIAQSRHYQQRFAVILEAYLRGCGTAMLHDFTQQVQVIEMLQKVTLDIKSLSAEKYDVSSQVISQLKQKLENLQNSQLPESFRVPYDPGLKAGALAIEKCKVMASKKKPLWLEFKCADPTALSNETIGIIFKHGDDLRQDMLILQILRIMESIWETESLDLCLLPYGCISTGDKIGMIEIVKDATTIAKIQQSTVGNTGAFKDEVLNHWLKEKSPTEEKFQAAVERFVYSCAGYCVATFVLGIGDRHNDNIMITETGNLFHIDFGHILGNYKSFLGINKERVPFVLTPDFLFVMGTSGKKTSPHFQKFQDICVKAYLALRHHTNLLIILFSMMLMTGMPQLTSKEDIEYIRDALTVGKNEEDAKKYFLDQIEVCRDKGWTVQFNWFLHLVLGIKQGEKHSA
PI3Kα, sequence (P42336 whole entry, species assumed): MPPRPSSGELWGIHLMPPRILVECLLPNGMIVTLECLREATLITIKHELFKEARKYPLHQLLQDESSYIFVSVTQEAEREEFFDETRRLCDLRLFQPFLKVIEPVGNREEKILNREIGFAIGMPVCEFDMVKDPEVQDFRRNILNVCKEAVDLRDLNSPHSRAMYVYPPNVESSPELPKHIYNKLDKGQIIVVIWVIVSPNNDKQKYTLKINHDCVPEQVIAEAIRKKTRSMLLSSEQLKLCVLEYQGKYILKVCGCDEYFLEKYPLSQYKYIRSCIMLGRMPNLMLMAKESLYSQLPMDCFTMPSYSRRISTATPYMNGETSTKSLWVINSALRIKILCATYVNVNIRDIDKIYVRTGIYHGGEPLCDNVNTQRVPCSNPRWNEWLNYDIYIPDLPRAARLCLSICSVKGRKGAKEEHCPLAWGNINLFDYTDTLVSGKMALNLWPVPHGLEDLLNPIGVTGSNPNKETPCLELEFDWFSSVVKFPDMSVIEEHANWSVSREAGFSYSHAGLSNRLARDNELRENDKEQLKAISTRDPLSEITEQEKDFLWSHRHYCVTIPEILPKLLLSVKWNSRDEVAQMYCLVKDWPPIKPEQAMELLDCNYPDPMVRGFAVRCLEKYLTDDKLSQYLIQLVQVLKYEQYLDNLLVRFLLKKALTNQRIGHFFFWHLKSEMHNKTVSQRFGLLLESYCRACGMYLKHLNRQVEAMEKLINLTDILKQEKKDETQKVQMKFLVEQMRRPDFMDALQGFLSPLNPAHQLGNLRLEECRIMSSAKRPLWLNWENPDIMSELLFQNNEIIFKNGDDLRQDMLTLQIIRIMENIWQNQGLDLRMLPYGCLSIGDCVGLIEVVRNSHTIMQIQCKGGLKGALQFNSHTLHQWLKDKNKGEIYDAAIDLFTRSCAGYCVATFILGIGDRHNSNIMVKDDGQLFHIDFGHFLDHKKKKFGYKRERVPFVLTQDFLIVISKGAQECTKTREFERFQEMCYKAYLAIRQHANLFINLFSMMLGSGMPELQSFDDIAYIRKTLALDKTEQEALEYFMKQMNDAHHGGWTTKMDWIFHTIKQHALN
PI3Kα, sequence (P27986 whole entry partner, species assumed): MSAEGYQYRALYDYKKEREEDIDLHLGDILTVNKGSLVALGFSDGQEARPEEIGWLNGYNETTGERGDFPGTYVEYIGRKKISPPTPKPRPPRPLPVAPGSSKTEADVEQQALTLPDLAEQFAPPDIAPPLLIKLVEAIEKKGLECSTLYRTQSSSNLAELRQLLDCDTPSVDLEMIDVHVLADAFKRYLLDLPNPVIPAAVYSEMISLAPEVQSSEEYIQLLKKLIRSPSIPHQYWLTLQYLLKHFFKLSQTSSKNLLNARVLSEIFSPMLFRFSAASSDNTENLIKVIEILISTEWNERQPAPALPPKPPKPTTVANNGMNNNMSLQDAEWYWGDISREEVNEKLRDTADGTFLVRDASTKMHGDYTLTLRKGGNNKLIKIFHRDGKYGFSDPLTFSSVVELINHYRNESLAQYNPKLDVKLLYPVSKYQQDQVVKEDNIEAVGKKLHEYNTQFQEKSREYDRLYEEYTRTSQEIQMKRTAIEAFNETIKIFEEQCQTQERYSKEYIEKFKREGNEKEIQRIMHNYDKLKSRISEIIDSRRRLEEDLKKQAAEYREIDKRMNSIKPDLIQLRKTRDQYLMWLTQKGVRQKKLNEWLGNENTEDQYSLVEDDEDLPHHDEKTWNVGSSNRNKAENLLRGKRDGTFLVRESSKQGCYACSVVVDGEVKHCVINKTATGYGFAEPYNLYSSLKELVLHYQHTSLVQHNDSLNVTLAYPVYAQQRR
T1 sequence (Q12809 whole entry): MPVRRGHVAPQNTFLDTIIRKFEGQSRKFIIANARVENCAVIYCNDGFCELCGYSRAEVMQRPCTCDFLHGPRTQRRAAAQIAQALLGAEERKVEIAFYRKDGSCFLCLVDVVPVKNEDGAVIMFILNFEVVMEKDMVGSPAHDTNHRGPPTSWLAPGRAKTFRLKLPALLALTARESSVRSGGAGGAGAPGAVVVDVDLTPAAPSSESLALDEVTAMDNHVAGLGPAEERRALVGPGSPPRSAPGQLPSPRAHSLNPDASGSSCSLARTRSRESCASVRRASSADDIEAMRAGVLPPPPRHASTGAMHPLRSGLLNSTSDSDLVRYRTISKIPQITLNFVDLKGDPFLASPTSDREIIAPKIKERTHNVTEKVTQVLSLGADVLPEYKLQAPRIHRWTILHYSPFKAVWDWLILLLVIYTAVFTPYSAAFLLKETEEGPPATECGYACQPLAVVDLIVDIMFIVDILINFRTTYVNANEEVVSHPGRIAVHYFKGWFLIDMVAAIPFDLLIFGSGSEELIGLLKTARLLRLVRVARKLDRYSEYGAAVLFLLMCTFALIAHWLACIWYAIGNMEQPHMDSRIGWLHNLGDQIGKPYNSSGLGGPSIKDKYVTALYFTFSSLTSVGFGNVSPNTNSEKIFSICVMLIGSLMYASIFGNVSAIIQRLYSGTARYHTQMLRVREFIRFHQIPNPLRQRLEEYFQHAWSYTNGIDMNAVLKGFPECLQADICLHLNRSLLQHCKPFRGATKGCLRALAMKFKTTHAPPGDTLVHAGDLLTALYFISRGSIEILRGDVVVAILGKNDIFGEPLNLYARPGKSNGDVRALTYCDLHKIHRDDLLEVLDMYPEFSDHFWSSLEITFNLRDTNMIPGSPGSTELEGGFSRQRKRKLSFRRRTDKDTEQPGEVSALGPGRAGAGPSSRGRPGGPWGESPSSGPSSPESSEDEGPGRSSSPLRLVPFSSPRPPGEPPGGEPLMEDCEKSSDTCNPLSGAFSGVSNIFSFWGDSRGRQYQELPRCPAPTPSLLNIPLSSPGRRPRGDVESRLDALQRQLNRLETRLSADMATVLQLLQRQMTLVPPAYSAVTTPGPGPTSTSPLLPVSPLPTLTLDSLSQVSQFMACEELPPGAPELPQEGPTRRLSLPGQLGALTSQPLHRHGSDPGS
T2 sequence (P08684 whole entry): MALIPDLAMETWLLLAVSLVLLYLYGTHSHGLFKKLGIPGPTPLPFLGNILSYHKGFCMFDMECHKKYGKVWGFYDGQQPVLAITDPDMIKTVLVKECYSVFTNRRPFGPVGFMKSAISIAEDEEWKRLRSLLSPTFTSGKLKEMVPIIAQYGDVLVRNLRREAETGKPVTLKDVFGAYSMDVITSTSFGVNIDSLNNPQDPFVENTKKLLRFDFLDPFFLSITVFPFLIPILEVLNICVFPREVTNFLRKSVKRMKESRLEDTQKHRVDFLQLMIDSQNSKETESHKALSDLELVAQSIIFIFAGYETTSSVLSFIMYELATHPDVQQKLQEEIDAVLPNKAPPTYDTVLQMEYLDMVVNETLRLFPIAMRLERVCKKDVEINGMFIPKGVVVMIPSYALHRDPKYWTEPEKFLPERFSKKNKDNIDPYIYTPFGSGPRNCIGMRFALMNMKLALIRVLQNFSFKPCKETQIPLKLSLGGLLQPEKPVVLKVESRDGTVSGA

SMILES | inhibition at 10 min, 1 µM (hERG channel (IKr)) [%] | inhibition at 1 µM (AKT phosphorylation) [%] | IC50 at 15 min [1] [µM] | inhibition at 10 µM (PI3Kγ [2]) [%] | Ki (PI3Kγ [4]; [5]) [µM] | Ki (PI3Kγ [4]; read-out: PI3Kγ Ki value) [µM] | Ki (PI3Kα; [6]) [µM] | Ki (PI3Kβ; [7]) [µM] | Ki (PI3Kδ; [8]) [µM] | other results
COc1nc(Cl)cc(N2CCc3nc(NC(=O)Nc4ccccc4C(=O)NC(C)C(F)(F)F)sc3C2)n1 (stereo not drawn) [Compound I-176] | 0.4 | 83 | ≥ 10 |  |  |  |  |  |  | MBI (CYP3A4): (−) (When 3 μmol/L or less, the compound is shown as (−))
COc1cc(N2CCc3nc(NC(=O)Nc4cn(C)nc4C(=O)NC(CO)CO)sc3C2)nc(OC)n1 [Compound I-170] |  | 80 | > 20 | ≥ 95 |  |  |  |  |  | hLMS_ox(at 0.5 μM) % [3]: 91.6%
COc1cccc(-c2ccc3nc(NC(=O)Nc4ccccc4C(=O)NC(C)C)cn3n2)c1 [Compound I-123] |  |  |  |  | ≤ 0.03 | 0.025 | > 3 | ≤ 3 | ≤ 0.3 | 
CC(C)CCOc1ccccc1NC(=O)Nc1cc2n(n1)CCN2c1ccc2c(c1)CCN(C)C2=O [Compound I-112] |  |  |  |  | ≤ 3 | 1.1 | > 3 | > 3 | ≤ 3 | Ki (PI3Kα; read-out: PI3Kα Ki value): 7.5 µM; Ki (PI3Kβ; read-out: PI3Kβ Ki value): > 11 µM; Ki (PI3Kδ; read-out: PI3Kδ Ki value): 2.1 µM
CC(C)CCOc1ccccc1NC(=O)Nc1cn2nc(-c3cccc(S(C)(=O)=O)c3)ccc2n1 [Compound I-126] |  |  |  |  | ≤ 0.3 | 0.061 | > 3 | ≤ 3 | ≤ 3 | 
CC(C)CCc1ccccc1NC(=O)Nc1cc2n(n1)CCN2c1ccc2c(c1)CCN(C)C2=O [Compound I-113] |  |  |  |  | ≤ 3 | 2.3 | > 3 | > 3 | ≤ 3 | 
CC(C)NC(=O)c1ccccc1NC(=O)Nc1nc2c(s1)CN(c1cncc(C#N)c1)CC2 [Compound I-188] | 3.9 | 84 | > 20 | 80 |  |  |  |  |  | 
COc1nc(Cl)cc(N2CCc3nc(NC(=O)Nc4ccccc4C(=O)NC4CCOC4)sc3C2)n1 (stereo not drawn) [Compound I-175] | 1.6 | 88 | ≥ 10 | ≥ 95 |  |  |  |  |  | 
